The results in this text go back to paper PMC3110694 (Science (New York, N.Y.), 2010).

Data set [1] addresses β-glucuronidase activity in cultured E. coli cells (Escherichia coli, UniProt P05804). Kind of data set: β-glucuronidase activity in living E. coli cells. It counts as cell-based.
The next data set addresses E. coli β-glucuronidase (Escherichia coli, UniProt P05804). Put plainly: E. coli β-glucuronidase in vitro inhibition assay. The format is biochemical. To be noted: errors SD, N = 3.
The test system of another data set is Balb/cJ mice. Kind of data set: CPT-11-induced delayed diarrhea and intestinal damage in mice.

Entries after “also recorded” stand apart in the source; their conditions may differ.

β-glucuronidase activity in cultured E. coli cells, sequence (P05804 whole entry): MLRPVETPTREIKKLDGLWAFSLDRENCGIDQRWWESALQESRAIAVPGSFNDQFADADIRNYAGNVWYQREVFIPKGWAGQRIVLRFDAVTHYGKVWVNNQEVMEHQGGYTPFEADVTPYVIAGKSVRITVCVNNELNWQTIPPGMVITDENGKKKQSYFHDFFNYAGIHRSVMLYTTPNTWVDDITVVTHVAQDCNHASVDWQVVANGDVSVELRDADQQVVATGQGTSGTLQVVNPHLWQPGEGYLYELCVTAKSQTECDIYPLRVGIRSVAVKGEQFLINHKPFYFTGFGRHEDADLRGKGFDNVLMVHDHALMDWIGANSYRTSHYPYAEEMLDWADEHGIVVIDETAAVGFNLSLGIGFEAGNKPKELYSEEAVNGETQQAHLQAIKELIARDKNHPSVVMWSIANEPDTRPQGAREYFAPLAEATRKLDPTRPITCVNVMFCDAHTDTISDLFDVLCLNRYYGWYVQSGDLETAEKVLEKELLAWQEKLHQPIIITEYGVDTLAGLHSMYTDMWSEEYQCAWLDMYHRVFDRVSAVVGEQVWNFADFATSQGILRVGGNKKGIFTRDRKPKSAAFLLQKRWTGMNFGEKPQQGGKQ
E. coli β-glucuronidase, sequence (P05804 whole entry): as above

Consider glucaro-δ-lactam [reference compound], for which the EC50 result in data set [1] (E. coli cell-based, errors SD, N = 3) was “N.E”. For the same compound, in data set [1] (cultured E. coli, listed as GDL), the “effect on β-glucuronidase activity in cultured E. coli cells” value is given as “did not disrupt β-glucuronidase activity; also recorded: no effect”. Moreover, at E. coli β-glucuronidase, the IC50 was 26.4 ± 0.483 µM and the Ki was 7.75 ± 0.475 µM.

Take `CCc1c2c(nc3ccc(OC(=O)N4CCC(N5CCCCC5)CC4)cc13)-c1cc3c(c(=O)n1C2)COC(=O)[C@]3(O)CC` [CPT-11, irinotecan, reference compound]: in the data set with Balb/cJ mice (group 3: CPT-11 50 mg per kg i.p. once daily, no Inhibitor 1, days 8 to 10), the “diarrhea and bloody diarrhea, CPT-11 only” value was “all the animals; also recorded: produced bloody diarrhea starting after 8 days and peaking at 10 days”. Further, the “colonic tissue histology, CPT-11 only” value with Balb/cJ mice (group 3: CPT-11 only) is “destroyed these tissues; also recorded: highly disrupted tissues”. Also, the “euthanasia, CPT-11 only” value in the data set with Balb/cJ mice (group 3: CPT-11 only, by day 11) is on record as “all the group 3 animals had to be euthanized”.

What is called IC50 is the concentration that gives 50% inhibition. As usually defined, the Ki is the equilibrium dissociation constant of an inhibitor or competing ligand from its target.
